Reference: ChEMBL document CHEMBL1201862, “PubChem BioAssay data set” (2004)
Activity calls are given as the source filed them.

Columns and labels:
[1] = target: Peroxisome proliferator-activated receptor gamma/Nuclear receptor corepressor 2 (Homo sapiens, UniProt P37231+Q9Y618); test: Counterscreen for NR2E3 inverse agonists: TR-FRET-based biochemical high throughput dose response assay to identify inverse agonists of the interaction between peroxisome proliferator-activated receptor gamma (PPARg) and nuclear receptor co-repressor 2 (NCOR2).; assay type: functional
[2] = target: Photoreceptor-specific nuclear receptor (Homo sapiens, UniProt Q9Y5X4); test: ligands suppressing NR2E3 nuclear receptor activity – biochemical, TR-FRET, dose response (AID 463256); assay type: functional
Chain of Photoreceptor-specific nuclear receptor (Q9Y5X4 whole entry): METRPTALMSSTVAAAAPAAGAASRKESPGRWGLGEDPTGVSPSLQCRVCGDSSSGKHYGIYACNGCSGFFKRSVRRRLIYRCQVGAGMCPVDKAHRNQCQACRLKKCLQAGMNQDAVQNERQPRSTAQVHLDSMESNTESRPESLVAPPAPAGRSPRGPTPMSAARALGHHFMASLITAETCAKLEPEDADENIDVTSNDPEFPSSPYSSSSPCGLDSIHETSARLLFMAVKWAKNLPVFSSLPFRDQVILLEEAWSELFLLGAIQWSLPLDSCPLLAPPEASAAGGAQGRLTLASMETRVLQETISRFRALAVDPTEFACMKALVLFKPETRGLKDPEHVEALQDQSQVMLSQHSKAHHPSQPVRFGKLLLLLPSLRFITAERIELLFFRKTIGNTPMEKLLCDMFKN

[3] = target: T1, Apoptotic protease-activating factor 1 (Homo sapiens, UniProt O14727); assay type: functional
T1 sequence (O14727 whole entry): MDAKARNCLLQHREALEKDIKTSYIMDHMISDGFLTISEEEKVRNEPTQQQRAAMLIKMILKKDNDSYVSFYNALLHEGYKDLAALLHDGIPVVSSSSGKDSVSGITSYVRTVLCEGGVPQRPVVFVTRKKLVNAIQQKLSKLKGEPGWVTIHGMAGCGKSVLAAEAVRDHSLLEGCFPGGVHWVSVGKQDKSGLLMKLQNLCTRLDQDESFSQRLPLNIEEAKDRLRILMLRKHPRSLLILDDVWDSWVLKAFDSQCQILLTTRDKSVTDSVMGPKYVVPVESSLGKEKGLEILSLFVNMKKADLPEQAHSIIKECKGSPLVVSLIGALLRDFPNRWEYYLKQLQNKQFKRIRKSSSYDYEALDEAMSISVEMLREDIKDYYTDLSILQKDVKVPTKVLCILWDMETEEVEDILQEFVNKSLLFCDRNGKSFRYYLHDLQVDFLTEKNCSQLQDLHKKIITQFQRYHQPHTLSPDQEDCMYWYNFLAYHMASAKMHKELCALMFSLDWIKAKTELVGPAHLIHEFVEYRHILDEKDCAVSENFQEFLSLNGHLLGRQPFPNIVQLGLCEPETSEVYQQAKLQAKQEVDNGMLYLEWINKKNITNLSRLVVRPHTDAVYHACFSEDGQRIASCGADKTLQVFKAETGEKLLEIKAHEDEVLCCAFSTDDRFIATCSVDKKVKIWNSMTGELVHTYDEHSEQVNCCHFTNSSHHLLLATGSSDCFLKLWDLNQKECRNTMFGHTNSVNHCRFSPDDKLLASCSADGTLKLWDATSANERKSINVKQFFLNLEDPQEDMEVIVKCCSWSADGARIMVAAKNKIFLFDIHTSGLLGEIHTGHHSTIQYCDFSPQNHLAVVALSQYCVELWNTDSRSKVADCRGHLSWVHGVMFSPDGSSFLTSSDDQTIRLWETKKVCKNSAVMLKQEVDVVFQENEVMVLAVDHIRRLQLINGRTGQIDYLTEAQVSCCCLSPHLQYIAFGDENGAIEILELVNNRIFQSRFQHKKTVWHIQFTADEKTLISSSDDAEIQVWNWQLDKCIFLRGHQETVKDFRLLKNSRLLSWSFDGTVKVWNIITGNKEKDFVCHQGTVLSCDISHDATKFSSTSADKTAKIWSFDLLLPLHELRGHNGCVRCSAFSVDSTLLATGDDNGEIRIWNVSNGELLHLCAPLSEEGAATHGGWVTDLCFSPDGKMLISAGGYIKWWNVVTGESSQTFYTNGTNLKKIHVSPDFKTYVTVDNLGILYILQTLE

Estrogen receptor beta = Estrogen receptor beta (Homo sapiens, UniProt Q92731); test: blockers of SRC-3 recruitment to ERβ – biochemical, ELISA, streptavidin-HRP readout, orthogonal assay, confirmation (AID 1060)
Chain of Estrogen receptor beta (Q92731 whole entry): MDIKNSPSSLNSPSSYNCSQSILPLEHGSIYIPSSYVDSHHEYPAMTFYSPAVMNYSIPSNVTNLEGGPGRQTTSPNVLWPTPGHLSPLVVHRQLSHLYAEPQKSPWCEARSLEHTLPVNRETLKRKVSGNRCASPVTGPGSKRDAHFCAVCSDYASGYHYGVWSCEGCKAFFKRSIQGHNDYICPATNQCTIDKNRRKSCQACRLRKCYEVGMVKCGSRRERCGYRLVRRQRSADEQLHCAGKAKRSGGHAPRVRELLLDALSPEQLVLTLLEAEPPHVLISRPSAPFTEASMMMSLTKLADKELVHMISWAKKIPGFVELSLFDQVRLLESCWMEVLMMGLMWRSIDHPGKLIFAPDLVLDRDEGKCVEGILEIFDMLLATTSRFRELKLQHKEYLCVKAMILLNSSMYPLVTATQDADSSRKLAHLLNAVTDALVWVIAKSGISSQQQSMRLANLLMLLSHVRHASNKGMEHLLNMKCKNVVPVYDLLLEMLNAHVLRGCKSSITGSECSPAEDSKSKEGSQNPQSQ

fMet-Leu-Phe receptor = target: T2, fMet-Leu-Phe receptor (Homo sapiens, UniProt P21462); test: formyl peptide receptor binders – dose response (AID 519); assay type: functional
T2 sequence (P21462 whole entry): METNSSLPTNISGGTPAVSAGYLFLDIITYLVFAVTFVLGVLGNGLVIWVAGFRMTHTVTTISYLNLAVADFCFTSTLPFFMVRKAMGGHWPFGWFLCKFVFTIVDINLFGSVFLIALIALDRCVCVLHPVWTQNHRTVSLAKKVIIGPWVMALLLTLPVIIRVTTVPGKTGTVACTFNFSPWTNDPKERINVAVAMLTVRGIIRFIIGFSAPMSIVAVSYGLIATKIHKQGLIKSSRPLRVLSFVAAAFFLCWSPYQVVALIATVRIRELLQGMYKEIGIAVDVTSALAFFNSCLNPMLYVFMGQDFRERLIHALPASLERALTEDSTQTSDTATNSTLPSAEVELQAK

Large T antigen = Large T antigen (Simian virus 40, UniProt P03070); assay type: functional, Betapolyomavirus macacae;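 note: Confirmatory-stage PubChem screen for compounds that inhibit SV40 T antigen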
Chain of Large T antigen (P03070 whole entry): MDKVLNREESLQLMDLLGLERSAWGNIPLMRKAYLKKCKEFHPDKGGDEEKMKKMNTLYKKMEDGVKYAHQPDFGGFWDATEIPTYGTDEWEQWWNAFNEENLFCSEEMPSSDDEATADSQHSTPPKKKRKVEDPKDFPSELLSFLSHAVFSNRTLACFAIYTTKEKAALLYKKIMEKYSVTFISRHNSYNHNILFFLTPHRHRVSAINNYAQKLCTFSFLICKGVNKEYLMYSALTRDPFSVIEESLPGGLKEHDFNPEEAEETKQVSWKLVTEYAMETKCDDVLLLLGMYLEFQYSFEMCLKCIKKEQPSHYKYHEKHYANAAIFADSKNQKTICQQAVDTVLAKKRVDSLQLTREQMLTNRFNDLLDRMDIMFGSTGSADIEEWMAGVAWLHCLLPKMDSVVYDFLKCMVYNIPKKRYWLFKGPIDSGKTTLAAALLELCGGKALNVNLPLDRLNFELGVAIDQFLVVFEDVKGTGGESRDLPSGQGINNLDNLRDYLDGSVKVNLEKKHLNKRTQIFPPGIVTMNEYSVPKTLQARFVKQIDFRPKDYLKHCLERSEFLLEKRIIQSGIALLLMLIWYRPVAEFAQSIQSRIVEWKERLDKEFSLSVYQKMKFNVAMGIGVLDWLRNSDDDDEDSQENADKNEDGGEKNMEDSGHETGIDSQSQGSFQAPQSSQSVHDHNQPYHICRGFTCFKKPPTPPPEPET

Bcl-2-like protein 10 = Bcl-2-like protein 10 (Homo sapiens, UniProt Q9HD36); test: Bcl-B/TR3 peptide binding disruption – biochemical, fluorescence polarization, FITC-TR3 peptide, selectivity assay for Bfl-1 inhibitor project, primary screen (AID 748);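 note: fluorescence polarization from a fluorescein-labelled TR3 peptide binding purified Bcl-B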
Chain of Bcl-2-like protein 10 (Q9HD36 whole entry): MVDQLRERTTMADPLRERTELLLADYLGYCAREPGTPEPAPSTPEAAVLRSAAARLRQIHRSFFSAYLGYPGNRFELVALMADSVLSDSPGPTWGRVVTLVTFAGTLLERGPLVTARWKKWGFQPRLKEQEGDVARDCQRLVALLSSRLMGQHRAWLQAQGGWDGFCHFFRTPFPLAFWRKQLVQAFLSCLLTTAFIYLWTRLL

Nonstructural protein 1 = Nonstructural protein 1 (Influenza A virus, UniProt Q194T2); assay type: functional, Influenza A virus (A/California/07/2009(H1N1))
Chain of Nonstructural protein 1 (Q194T2 whole entry): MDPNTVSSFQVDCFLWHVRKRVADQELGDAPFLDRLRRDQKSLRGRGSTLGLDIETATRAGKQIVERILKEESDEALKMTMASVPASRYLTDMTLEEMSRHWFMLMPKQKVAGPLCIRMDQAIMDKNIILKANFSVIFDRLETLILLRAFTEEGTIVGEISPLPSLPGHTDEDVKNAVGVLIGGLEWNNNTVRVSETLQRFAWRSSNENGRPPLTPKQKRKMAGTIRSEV

[4] = Fluorescence Cell-Based Dose Response to Identify Inhibitors of Thrombin Receptor-Activating Peptide SFLLRN-Mediated P-Selectin Induction on Platelets. [Related pubchem assays: 1663 (Primary HTS), 1889 (retest at dose ), 1891 (counterscreen), 1678 (Project Summary)]; assay type: functional
[5] = target: Luciferin 4-monooxygenase (Photinus pyralis, UniProt P08659); test: inhibition of purified Photinus pyralis luciferase – biochemical, luminescence, dose response (AID 1891)
Chain of Luciferin 4-monooxygenase (P08659 whole entry): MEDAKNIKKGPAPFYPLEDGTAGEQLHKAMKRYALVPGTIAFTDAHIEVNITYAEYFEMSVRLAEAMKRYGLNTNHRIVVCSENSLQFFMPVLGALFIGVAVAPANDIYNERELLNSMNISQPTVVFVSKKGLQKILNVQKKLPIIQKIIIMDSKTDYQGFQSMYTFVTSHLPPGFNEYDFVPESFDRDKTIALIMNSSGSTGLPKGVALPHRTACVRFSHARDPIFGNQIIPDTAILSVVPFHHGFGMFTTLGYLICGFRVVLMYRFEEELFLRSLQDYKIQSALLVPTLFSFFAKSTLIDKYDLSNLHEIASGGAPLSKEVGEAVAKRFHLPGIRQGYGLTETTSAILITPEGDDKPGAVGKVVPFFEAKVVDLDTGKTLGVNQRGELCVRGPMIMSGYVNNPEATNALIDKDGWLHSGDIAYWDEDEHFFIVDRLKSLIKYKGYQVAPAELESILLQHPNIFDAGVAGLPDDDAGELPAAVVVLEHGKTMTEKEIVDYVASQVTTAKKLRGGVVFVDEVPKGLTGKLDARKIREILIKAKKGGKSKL

[6] = Luminescence Cell-Based Dose Confirmation HTS to Identify Inhibitors of Platelet Dense Granule Release. [Related pubchem assays: 1663 (Primary HTS), 1678 (Summary of Project)]; assay type: functional
NADPH oxidase 1 = NADPH oxidase 1 (Homo sapiens, UniProt Q9Y5S8); test: Luminescence-based cell-based dose response assay to identify inhibitors of NADPH oxidase 1 (NOX1).; assay type: functional
Chain of NADPH oxidase 1 (Q9Y5S8 whole entry): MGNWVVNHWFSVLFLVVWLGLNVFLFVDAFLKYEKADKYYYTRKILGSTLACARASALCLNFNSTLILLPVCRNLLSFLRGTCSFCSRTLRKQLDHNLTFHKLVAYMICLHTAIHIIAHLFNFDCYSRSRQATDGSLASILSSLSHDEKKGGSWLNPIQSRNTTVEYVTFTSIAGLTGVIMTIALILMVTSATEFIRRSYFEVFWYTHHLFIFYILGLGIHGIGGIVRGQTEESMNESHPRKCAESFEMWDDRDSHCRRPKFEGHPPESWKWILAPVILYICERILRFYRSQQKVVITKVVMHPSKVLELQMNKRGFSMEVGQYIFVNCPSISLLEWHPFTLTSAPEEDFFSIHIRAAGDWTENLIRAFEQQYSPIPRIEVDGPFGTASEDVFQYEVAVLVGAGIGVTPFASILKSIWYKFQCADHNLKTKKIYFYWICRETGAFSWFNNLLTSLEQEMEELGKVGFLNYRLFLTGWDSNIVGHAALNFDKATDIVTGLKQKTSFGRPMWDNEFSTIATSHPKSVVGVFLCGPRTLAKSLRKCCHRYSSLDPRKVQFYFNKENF

[7] = NIH-3T3 fibroblast cytotoxicity, dose response, cytotoxicity control, cell-based, fluorescence, Alamar Blue, secondary assay (AID 2327); assay type: functional;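 note: NIH-3T3 mouse fibroblasts cultured with fluconazole at 8 µg/mL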
Ephrin type-A receptor 4 = Ephrin type-A receptor 4 (Mus musculus, UniProt Q03137); test: EphA4 ligand-binding antagonists – biochemical, colorimetric, mouse EphA4, primary screen (AID 689); assay type: functional
Chain of Ephrin type-A receptor 4 (Q03137 whole entry): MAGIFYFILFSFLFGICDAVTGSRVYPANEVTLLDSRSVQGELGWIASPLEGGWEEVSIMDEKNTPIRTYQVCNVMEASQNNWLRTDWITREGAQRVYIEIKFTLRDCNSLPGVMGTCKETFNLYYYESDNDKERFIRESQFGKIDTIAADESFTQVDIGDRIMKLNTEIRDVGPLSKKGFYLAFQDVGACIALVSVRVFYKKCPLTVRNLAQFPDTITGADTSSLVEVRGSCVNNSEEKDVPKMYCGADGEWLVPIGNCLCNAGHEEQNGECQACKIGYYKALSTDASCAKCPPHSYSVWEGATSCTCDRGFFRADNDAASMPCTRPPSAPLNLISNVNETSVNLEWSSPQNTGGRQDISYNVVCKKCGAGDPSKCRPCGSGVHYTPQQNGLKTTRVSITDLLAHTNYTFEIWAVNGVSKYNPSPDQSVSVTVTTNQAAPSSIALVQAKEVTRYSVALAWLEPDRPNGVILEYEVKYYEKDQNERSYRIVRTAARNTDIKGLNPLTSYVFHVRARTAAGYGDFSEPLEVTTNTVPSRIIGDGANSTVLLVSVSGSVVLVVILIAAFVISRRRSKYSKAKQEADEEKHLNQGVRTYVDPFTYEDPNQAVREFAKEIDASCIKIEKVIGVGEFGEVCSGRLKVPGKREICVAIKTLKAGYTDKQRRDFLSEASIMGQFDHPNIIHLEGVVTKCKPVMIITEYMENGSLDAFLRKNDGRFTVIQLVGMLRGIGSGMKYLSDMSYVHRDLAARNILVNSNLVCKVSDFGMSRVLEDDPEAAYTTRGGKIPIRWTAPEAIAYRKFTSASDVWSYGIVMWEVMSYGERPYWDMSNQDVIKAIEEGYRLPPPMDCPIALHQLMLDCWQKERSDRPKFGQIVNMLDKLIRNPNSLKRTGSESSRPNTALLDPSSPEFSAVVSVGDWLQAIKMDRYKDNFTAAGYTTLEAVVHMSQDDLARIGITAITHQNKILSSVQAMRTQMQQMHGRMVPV

Cytochrome P450 1A2 = target: T3, Cytochrome P450 1A2 (Homo sapiens, UniProt P05177);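 note: PubChem cytochrome P450 panel assay, CYP1A2 panel member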
T3 sequence (P05177 whole entry): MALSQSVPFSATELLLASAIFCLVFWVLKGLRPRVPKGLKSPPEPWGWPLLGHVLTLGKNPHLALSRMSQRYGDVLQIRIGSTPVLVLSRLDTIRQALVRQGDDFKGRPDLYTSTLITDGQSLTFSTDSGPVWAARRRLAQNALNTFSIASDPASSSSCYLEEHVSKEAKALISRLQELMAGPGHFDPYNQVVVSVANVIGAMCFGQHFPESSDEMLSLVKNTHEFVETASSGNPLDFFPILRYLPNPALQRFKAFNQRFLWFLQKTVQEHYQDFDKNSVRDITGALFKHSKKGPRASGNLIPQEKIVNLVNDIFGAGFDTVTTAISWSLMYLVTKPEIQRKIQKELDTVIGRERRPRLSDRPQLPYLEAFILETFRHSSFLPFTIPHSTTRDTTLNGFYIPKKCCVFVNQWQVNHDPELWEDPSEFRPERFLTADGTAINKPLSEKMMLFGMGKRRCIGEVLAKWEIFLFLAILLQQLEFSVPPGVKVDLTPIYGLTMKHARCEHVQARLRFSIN

[8] = fluconazole-exposed Candida albicans growth modulators – fluorescence, retest, confirmation (AID 2467); assay type: functional, cell-based
Cytochrome P450 2C9 = Cytochrome P450 2C9 (Homo sapiens, UniProt P11712)
Chain of Cytochrome P450 2C9 (P11712 whole entry): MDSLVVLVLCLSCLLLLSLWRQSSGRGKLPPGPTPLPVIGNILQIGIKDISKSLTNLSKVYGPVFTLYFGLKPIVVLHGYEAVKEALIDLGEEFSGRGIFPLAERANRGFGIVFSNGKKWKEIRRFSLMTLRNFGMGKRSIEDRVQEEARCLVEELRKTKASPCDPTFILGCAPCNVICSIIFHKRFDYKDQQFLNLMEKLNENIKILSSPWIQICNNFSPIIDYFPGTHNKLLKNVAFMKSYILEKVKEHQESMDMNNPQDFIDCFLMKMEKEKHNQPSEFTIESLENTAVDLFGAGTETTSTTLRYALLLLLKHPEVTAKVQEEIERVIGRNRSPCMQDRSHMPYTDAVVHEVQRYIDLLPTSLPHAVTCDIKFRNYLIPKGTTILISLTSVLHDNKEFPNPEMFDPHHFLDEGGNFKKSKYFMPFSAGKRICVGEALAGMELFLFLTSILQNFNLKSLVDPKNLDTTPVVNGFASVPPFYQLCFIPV

O=C(Nc1nccs1)c1cc(-c2ccccn2)nc2c(Cl)cccc12
IC50 [1]: 2.89 µM (active)
IC50 [2]: 3.87 µM (active)

CCOC(=O)N1CCN(c2cc(NCCC(=O)O)c3c4c(onc24)-c2ccccc2C3=O)CC1
IC50 [3]: 25.6 µM (active)
IC50 (Estrogen receptor beta): 5.41 µM (not active)
Ki (fMet-Leu-Phe receptor): > 66.7 µM (inactive)
IC50 (Large T antigen): > 100 µM (active)
IC50 (Bcl-2-like protein 10): 7.52 µM (active)
IC50 (Nonstructural protein 1): 20.3 µM (active)

COc1ccc(C(=O)Nc2ccc(N3CCOCC3)cc2)cc1OC
EC50 [4]: > 100 µM (not active)
EC50 [5]: 24.2 µM (active)
EC50 [6]: 1.95 µM (active)

CC(=O)N(C)c1ccc(NC(=O)Nc2ccc(Cl)cc2)cc1
IC50 (NADPH oxidase 1): > 20 µM (not active)

O=C(O)c1ccccc1C(=O)NNc1ccc(F)cc1
EC50 [7]: 25.5 µM (active)
IC50 (Ephrin type-A receptor 4): > 100 µM (not active)
AC50 (Cytochrome P450 1A2): 20 µM (inconclusive)
EC50 [8]: > 38 µM (not active)
AC50 (Cytochrome P450 2C9): 0.0251 µM (inconclusive)
